Literature values as cited in patent publication US20160339010A1, “Treatment of Partly Controlled or Uncontrolled Severe Asthma” (TAKEDA GMBH, priority 2014, published 2016).

Assays:
[1] = test system: patients with severe and uncontrolled bronchial asthma; details: on top of Fluticasone 500 mcg/Salmeterol 50 mcg twice daily; cited from earlier work
[2] = test system: patients with high-dose corticosteroid dependent asthma; details: cited from earlier work
asthma patients = details: cited from earlier work

O=C(Nc1c(Cl)cncc1Cl)c1ccc(OC(F)F)c(OCC2CC2)c1 [Roflumilast]
FEV1 [1]: significantly improved
Forced vital capacity (FVC) [1]: significantly improved
accumulation of neutrophils in induced sputum [1]: reduced
morning PEF [1]: significantly improved

CC(C)(O)c1ccccc1CC[C@@H](SCC1(CC(=O)[O-])CC1)c1cccc(/C=C/c2ccc3ccc(Cl)cc3n2)c1.[Na+] [montelukast, [R-(E)]-1-[[[1-[3-[2-(7-chloro-2-quinolinyl)ethenyl]phenyl]-3-[2-(1-hydroxy-1-methylethyl)phenyl]propyl]thio]methyl]cyclopropaneacetic acid]
sputum eosinophilia [2]: failure of montelukast to reduce

Cn1c(=O)c2[nH]cnc2n(C)c1=O [theophylline]
benefit of add-on therapy to inhaled glucocorticosteroids (asthma patients): no benefit
